One data set relates to anaesthetised rats. In words: intravenous toxicity in anaesthetised rats. The format is in vivo. As to conditions: intravenously, two anaesthetised rats, ten times the dose giving approximate 50% inhibition of gastric secretion in the anaesthetised rat. The protocol: (§1) No overt toxicity or side effects were noted during the rat or dog tests. The compounds N-cyano-5-(4-[2-propylguanidino]pyrimid-2-yl)valeramidino was administered intravenously to groups of two anaesthetised rats and four conscious mice at doses which were respectively ten times and one hundred times the dose, in mg./kg., which produced an approximate 50% inhibition of gastric secretion in the anaesthetised rat.

The test system of a further data set is conscious mice. Nature of the data set: intravenous toxicity in conscious mice. Type of data set: in vivo, mouse. The note with it: intravenously, four conscious mice, one hundred times the dose giving approximate 50% inhibition of gastric secretion in the anaesthetised rat. The procedure:
as §1

Structures are written as SMILES.

For `CCCN=C(N)Nc1ccnc(CCCCC(=N)NC#N)n1` [Example 2, N-cyano-5-(4-[2-propylguanidino]pyrimid-2-yl)valeramidine], the toxic symptoms entry with anaesthetised rats and with conscious mice was “No toxic symptoms” in each case.

The values above are taken from patent US4748165A, “Amidine derivatives” (Imperial Chemical Industries PLC, priority 1981, dated 1988).
